Patent US6849607B2, “Galectin recognized photosensitizers for photodynamic therapy” (Health Research, Inc., priority 2001, dated 2005)

What was measured:
[1] = test system: B16-F1 cells; assay: In vitro photosensitizing efficacy in B16-F1 cells, low Gal-1 expression (MTT); type: cell-based; settings: free lactose (100 μM)
Procedure: (§1) For determining photosensitizing efficacy in B16-F1 and J774A.Cell were plated at 1×10^4 and 2×10^4 cells per well respectively in 96 well plates. After overnight incubation, compounds 1 and 4 at the same concentration (0-2 μM) were added. After further 3 hr incubation, cells were washed with PBS and irradiated with white light (0-4 joules). […] The cells were then incubated in complete media for 48 hrs and assayed for survival using the standard MTT assay.

[2] = test system: J774A.1 cells; assay: In vitro photosensitizing efficacy in J774A.1 cells, high Gal-1 expression (MTT); type: cell-based
Procedure: as §1

[3] = test system: J774A.1 cells; assay: Photosensitizer uptake in J774A.1 cells (fluorescence/μg protein); type: cell-based; settings: 1.0 μM, 3 and 24 hrs
Procedure: In order to test the galectin-specificity of the carbohydrate conjugates, the uptake and photosensitizing efficacy of photosensitizers 1 and 4 was investigated in two cell lines; B16-F1 and J774A.1 known for low (15-20%) and high galectin-expression (80-85%) respectively 37. The cells were grown in DMEM with 10% FCS, maintained in 5% CO2, 95% air and 100% humidity. For uptake studies 1×10^6 cells were plated in 60 mm dishes. […] The cells were then gently removed from the dishes, 1.0 ml aliquots were transferred into 1 cm quartz cuvettes and their fluorescence was read on a PT1model ALBHA1 fluorimeter, at 701 nm using an excitation of wavelength of 414 nm. Protein determinations were done using Bio-rad protein assay, protein levels were determined from a standard curve. The data was represented as fluorescence/μg protein.

[4] = test system: Molt-4 cells; assay: Cellular localization by fluorescence microscopy in Molt-4 cells; type: cell-based, human
Procedure: For investigating the difference in sites of localization between the photosensitizers with and without carbohydrate moieties, the fluorescence light microscopy experiments were performed in Molt-4 and RIF tumor cell lines. In a typical experiment, cells were imaged at 100× on an inverted fluorescence microscope (Carl Zeiss Inc. Axiovert 35.W.Germany) with a charged-coupled device camera (Dage-MTI, model 104722-02). Images were captured and processed by computer using Image-1 image processing software (Universal Imaging Corp., version 4.0, WestChester, Pa.). The photosensitizer fluorescence was assessed by using 530-585 nm excitation and 615 nm long-pass filter to measure emission while 338-378 nm excitation for DPH, and a 450 nm emission filter for emission (400 nm dichroic). […] In addition, […]1-(4-trimethylammonium)-6-phenyl-1,3,5-hexatriene (TMA-DPH), a hydrophobic fluorescent probe which interacts with living cells by instantaneous incorporation into plasma membrane and becomes fluorescent (Illinger, D., and Kuhry, J. G., The Kinetic Aspects of Intracellular Fluorescence Labeling with TMA-DPH Support the Maturation Model for Endocytosis in L929 Cells, The Journal of Cell Biology, 125:783-794, 1994), was added for the last 5 min of the incubation, cells were washed once with PBS and transferred to a microscope slide for imaging. […]

`C=C(C=CCO[C@@H]1O[C@H](CO)[C@@H](O[C@@H]2O[C@H](CO)[C@H](O)[C@H](O)[C@H]2O)[C@H](O)[C@H]1O)CN1C(=O)c2c3nc(cc4[nH]c(cc5nc(cc6[nH]c2c(c6C)C1=O)C(CC)=C5C)c(CC)c4C)C(C)C3CCC(=O)OC` (mixture of isomers) [4a, Lactose-Chlorin conjugate joined with diene linkage] was tested, and the “PDT efficacy on addition of free lactose” value [1] was “almost completely inhibited”, the “PDT efficacy on addition of free lactose” value ([2]; free lactose (100 μM)) was “almost completely inhibited” and the “phototoxicity compared to photosensitizer 1a” value ([2]; high Gal-1 expression (80-85%), 1.0 μM) was “enhanced phototoxicity”. For the same compound, the drug uptake [3] was “increased uptake” and the “fluorescence in presence of free lactose” value ([4]; lactose 100 μM) was “No fluorescence was observed”.
For “Mesopurpurin-18-N-methyl-(2′-butadiene)imide [1a]”, the cellular localization ([4]; incubated for 3 hrs) was “intracellular localization”.
